Results reported in publication PMC7613998, “Development of selective inhibitors of phosphatidylinositol 3-kinase C2α” (Nature Chemical Biology, 2022).

Assays:
Assay in all cases: biochemical
Parameters in all cases: SelectScreen Z'-LYTE purified kinase panel, per cent inhibition, mean of two points
Settings in all cases: (μM)=Km app
[1] = target: AKT1 (PKB alpha) (Homo sapiens, UniProt P31749)
[2] = target: T1, DCAMKL1 (DCLK1) (Homo sapiens, UniProt O15075)
T1 sequence (O15075 1-740): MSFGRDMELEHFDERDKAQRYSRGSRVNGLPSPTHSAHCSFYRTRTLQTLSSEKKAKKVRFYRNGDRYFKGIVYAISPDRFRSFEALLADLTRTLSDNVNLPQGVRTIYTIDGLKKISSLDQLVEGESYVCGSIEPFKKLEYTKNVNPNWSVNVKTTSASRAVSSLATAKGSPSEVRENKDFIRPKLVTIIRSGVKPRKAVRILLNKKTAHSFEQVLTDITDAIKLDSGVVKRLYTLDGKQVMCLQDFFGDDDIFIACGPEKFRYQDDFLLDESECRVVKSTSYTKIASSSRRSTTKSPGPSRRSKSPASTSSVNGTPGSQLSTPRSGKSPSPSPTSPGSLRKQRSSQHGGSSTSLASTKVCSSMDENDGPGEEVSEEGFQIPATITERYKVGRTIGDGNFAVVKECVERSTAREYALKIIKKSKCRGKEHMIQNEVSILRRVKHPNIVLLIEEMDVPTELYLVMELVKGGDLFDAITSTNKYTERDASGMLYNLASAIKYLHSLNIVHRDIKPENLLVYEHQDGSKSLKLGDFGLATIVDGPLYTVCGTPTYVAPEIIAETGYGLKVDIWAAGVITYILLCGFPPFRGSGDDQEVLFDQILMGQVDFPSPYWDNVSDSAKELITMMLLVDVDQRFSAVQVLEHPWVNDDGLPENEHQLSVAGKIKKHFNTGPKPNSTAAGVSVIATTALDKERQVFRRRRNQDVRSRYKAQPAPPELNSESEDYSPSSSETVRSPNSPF

[3] = target: EGFR (ErbB1) L858R (Homo sapiens, UniProt P00533, L858R)
[4] = target: ERBB2 (HER2) (Homo sapiens, UniProt P04626)
[5] = target: IGF1R (Homo sapiens, UniProt P08069)
[6] = target: JAK1 (Homo sapiens, UniProt P23458)
[7] = target: PAK4 (Homo sapiens, UniProt O96013)
[8] = target: PIM3 (Homo sapiens, UniProt Q86V86)
[9] = target: PKN1 (PRK1) (Homo sapiens, UniProt Q16512)
[10] = target: PLK1 (Homo sapiens, UniProt P53350)
[11] = target: PRKCA (PKC alpha) (Homo sapiens, UniProt P17252)
[12] = target: PTK2 (FAK) (Homo sapiens, UniProt Q05397)
[13] = target: SRC (Homo sapiens, UniProt P12931)
Sequence of SRC (P12931 whole entry): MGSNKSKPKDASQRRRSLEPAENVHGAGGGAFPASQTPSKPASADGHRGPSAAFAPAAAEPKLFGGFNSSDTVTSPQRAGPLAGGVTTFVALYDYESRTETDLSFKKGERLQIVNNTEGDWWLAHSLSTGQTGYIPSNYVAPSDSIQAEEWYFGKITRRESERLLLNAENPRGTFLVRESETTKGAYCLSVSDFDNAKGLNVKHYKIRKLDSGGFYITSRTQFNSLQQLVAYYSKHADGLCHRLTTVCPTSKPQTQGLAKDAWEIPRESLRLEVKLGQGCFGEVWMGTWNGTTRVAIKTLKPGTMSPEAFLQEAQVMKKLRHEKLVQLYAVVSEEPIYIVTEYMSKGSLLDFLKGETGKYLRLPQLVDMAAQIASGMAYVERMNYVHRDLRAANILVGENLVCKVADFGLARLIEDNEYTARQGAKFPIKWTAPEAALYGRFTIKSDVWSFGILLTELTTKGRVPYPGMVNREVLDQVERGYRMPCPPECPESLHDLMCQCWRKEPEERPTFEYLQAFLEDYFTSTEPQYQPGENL

Sequence of EGFR (ErbB1) L858R (P00533 whole entry L858R): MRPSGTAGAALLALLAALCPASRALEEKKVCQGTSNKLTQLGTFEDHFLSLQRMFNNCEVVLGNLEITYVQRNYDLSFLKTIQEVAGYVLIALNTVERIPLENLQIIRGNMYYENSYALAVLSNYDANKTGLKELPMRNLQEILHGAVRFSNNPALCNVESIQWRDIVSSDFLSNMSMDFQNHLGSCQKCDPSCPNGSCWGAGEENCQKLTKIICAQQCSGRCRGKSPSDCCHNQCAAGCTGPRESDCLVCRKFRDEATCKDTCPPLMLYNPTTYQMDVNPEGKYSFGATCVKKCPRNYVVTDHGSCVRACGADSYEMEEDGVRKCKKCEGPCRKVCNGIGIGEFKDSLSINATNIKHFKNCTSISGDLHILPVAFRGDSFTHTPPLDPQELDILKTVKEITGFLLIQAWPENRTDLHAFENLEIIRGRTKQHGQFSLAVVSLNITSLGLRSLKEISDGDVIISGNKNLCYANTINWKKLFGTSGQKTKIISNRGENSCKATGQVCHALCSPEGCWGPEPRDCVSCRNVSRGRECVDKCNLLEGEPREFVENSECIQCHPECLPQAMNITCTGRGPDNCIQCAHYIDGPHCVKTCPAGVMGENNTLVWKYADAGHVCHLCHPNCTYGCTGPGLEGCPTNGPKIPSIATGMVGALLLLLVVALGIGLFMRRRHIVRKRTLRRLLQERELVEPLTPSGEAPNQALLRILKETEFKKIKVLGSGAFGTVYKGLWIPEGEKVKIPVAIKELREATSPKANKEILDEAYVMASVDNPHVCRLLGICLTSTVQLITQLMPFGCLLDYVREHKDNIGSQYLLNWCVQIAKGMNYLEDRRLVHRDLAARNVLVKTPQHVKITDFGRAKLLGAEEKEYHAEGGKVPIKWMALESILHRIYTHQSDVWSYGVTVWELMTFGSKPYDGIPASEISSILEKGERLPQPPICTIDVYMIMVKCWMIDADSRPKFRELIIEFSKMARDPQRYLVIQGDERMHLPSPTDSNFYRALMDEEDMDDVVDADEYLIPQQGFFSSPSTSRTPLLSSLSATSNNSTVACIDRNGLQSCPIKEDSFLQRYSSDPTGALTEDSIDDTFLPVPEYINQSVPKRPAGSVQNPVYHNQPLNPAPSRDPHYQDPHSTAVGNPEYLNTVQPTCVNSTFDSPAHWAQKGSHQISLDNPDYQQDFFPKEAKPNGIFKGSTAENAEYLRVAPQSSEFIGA
Sequence of JAK1 (P23458 whole entry): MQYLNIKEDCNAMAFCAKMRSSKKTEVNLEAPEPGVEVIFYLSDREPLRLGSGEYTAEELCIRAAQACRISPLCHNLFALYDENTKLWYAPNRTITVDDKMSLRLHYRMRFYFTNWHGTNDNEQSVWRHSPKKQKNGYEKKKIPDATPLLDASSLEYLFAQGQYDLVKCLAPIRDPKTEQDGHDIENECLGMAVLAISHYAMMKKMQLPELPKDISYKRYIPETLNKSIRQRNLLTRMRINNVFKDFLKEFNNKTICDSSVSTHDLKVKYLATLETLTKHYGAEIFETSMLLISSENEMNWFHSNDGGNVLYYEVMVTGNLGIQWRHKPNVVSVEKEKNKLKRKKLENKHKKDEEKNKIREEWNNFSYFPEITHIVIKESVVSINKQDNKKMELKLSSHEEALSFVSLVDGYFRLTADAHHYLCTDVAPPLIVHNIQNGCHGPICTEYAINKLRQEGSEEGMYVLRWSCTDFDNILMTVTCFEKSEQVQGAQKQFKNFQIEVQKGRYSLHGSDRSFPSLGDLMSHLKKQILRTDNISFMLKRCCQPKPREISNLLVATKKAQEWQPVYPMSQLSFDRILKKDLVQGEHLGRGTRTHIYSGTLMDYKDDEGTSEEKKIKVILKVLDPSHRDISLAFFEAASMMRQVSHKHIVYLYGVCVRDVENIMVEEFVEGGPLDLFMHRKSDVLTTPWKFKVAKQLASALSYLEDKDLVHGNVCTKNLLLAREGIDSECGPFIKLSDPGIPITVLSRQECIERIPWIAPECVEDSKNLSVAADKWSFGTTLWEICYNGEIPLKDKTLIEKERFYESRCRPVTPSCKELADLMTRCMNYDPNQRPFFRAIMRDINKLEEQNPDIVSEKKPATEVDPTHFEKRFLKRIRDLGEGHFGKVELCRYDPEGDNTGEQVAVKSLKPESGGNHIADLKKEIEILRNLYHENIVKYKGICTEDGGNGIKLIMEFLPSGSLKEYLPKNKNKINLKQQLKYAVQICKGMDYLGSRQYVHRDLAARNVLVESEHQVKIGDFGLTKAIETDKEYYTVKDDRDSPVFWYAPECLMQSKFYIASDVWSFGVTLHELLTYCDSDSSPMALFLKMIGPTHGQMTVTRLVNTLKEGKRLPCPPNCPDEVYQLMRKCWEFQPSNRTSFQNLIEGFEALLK
Sequence of PAK4 (O96013 whole entry): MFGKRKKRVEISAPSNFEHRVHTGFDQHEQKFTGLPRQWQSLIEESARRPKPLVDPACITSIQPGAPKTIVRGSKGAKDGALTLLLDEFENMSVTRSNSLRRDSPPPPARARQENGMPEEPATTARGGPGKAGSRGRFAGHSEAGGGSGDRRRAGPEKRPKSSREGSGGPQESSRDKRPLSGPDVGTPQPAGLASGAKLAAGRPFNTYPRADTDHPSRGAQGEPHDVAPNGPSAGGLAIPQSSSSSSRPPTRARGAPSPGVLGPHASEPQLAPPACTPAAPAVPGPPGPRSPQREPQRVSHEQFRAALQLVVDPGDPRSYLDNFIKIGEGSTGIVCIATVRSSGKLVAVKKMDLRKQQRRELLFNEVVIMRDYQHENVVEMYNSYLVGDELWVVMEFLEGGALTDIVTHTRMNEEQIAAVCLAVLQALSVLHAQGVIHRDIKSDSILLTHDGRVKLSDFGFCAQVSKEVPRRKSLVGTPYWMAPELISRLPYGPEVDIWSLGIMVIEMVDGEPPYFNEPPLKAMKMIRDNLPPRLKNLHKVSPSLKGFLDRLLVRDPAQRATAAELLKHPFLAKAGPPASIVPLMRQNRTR
Sequence of PKN1 (PRK1) (Q16512 whole entry): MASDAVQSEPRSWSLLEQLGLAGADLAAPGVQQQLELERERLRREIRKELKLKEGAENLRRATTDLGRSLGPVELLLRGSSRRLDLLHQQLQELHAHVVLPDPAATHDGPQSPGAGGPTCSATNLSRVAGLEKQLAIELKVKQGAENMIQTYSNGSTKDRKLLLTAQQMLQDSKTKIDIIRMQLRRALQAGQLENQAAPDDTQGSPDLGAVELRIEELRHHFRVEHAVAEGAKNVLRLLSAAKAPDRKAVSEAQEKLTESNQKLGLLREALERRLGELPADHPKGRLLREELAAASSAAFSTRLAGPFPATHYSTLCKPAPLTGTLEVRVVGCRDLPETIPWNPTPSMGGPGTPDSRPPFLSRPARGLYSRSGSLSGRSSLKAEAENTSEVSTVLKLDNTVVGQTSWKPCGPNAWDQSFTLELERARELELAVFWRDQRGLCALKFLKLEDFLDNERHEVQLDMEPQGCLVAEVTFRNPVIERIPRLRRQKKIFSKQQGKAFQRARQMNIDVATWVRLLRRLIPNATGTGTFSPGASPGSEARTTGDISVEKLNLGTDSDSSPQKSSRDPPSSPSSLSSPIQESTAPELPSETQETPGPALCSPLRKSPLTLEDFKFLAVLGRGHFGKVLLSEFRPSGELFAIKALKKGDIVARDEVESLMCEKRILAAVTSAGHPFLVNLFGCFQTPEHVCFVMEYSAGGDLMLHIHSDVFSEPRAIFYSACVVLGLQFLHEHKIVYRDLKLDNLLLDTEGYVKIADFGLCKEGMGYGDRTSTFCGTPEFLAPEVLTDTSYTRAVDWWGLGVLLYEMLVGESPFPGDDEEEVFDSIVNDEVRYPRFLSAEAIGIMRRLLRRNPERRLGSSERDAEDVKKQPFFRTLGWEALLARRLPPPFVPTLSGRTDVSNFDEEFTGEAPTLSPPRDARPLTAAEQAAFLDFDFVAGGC

| Structure (SMILES) | inhibition at 1 µM [1] [%] | inhibition at 3 µM [1] [%] | inhibition at 10 µM [1] [%] | inhibition at 1 µM [2] [%] | inhibition at 3 µM [2] [%] | inhibition at 10 µM [2] [%] | inhibition at 1 µM [3] [%] | inhibition at 3 µM [3] [%] | inhibition at 10 µM [3] [%] | inhibition at 1 µM [4] [%] | inhibition at 3 µM [4] [%] | inhibition at 10 µM [4] [%] | inhibition at 1 µM [5] [%] | inhibition at 3 µM [5] [%] | inhibition at 10 µM [5] [%] | inhibition at 1 µM [6] [%] | inhibition at 3 µM [6] [%] | inhibition at 10 µM [6] [%] | inhibition at 1 µM [7] [%] | inhibition at 3 µM [7] [%] | further results |
| --- | --- | --- | --- | --- | --- | --- | --- | --- | --- | --- | --- | --- | --- | --- | --- | --- | --- | --- | --- | --- | --- |
| CS(=O)(=O)Nc1cccc(-c2csc(NC(=O)CSc3nc4nccnc4c(=O)n3CCc3ccccc3)n2)c1 [compound 3, PITCOIN3] | -1.18 | 7.49 | 3.66 | -7.05 | -11.7 | 13.7 | 1.72 | 5.21 | -1.6 | -1.62 | -3.07 | -10.7 | 5.31 | 9.19 | 11.7 | 2.76 | 4.25 | 0.516 | 4.8 | 3.9 | inhibition at 10 µM [7]: 2.41%; inhibition at 1 µM [8]: -2.65%; inhibition at 3 µM [8]: -27.1%; inhibition at 10 µM [8]: -12.5%; inhibition at 1 µM [9]: 2.88%; inhibition at 3 µM [9]: -5.53%; inhibition at 10 µM [9]: 4.05%; inhibition at 1 µM [10]: 9.36%; inhibition at 3 µM [10]: 10%; inhibition at 10 µM [10]: 7.66%; inhibition at 1 µM [11]: 0.445%; inhibition at 3 µM [11]: 18.8%; inhibition at 10 µM [11]: 15.2%; inhibition at 1 µM [12]: 9.45%; inhibition at 3 µM [12]: 8.02%; inhibition at 10 µM [12]: 6.38%; inhibition at 1 µM [13]: 9.83%; inhibition at 3 µM [13]: 12.2%; inhibition at 10 µM [13]: 7.36% |
| O=C(CSc1nc2nccnc2c(=O)n1CCc1ccccc1)Nc1nccs1 [compound 1, PITCOIN1] | 1.93 | 0.317 | 0.625 | -1.36 | -3.92 | 1.03 | -0.259 | 2.85 | -1.14 | -9.9 | -2.96 | -11.6 | 7.35 | 2.59 | 5.33 | 6.58 | 2.72 | 0.0941 | 9.59 | 9 | inhibition at 10 µM [7]: 4.11%; inhibition at 1 µM [8]: -19.5%; inhibition at 3 µM [8]: 0.932%; inhibition at 10 µM [8]: 0.817%; inhibition at 1 µM [9]: 8.46%; inhibition at 3 µM [9]: 1.84%; inhibition at 10 µM [9]: -4.65%; inhibition at 1 µM [10]: 8.77%; inhibition at 3 µM [10]: 11%; inhibition at 10 µM [10]: 10.9%; inhibition at 1 µM [11]: 6.59%; inhibition at 3 µM [11]: 10%; inhibition at 10 µM [11]: 0.714%; inhibition at 1 µM [12]: 4.94%; inhibition at 3 µM [12]: 3.7%; inhibition at 10 µM [12]: 2.3%; inhibition at 1 µM [13]: 8.59%; inhibition at 3 µM [13]: 3.7%; inhibition at 10 µM [13]: 9.6% |
